Test results as given in patent EP4745135A1 (Gluetacs Therapeutics (Shanghai) Co., Ltd., priority 2023, dated 2025).

Assays:
[1] = test system: Human multiple myeloma cell (MM.1S); assay: Tumor cell proliferation inhibition (CellTiter-Meiluncell luminescent cell viability assay); conditions: Homo sapiens, MM1.S, 96 h; for inhibition at 0.01 µM: read-out: Inhibition Rate at 10 nM (%); for inhibition at 0.5 µM: read-out: Inhibition Rate at 500 nM (%)
[2] = molecular target: T1, human Cereblon WT GST-tagged protein (Homo sapiens, UniProt Q96SW2); assay: CRBN-binding affinity, HTRF (CEREBLON BINDING kit); conditions: for inhibition at 0.5 µM: read-out: Inhibition Rate at 0.5 µM (%); for inhibition at 2 µM: read-out: Inhibition Rate at 2 µM (%)
T1 construct: purchased CISBIO 64BDCRBNPEH

[3] = molecular target: T2, IKZF2 (Homo sapiens, UniProt Q96SW2+Q9UKS7); assay: Western blot, degradation of substrate protein in hPBMCs; assay type: cell-based; conditions: Western blot, 24 hours of compound treatment, compounds tested at 50 nM and 500 nM (concentration for the table not stated)
T2 construct: effects of the compounds of the present disclosure on the expression of target proteins in cells; endogenous in cells; host or cells: human PBMCs (Milecell Biotechnologies)

[4] = molecular target: T3, IKZF3 (Homo sapiens, UniProt Q96SW2+Q9UKT9); assay: as above; assay type: cell-based; conditions: Western blot, 24 hours of compound treatment, compounds tested at 50 nM and 500 nM (concentration for the table not stated)
T3 construct: effects of the compounds of the present disclosure on the expression of target proteins in cells; endogenous in cells; host or cells: human PBMCs (Milecell Biotechnologies)

[5] = molecular target: T4, IKZF1 (Homo sapiens, UniProt Q13422+Q96SW2); assay: as above; assay type: cell-based; conditions: Western blot, 24 hours of compound treatment, compounds tested at 50 nM and 500 nM (concentration for the table not stated)
T4 construct: effects of the compounds of the present disclosure on the expression of target proteins in cells; endogenous in cells; host or cells: human PBMCs (Milecell Biotechnologies)

[6] = molecular target: T5, CK1α (Homo sapiens, UniProt P48729+Q96SW2); assay: as above; assay type: cell-based; conditions: Western blot, 24 hours of compound treatment, compounds tested at 50 nM and 500 nM (concentration for the table not stated)
T5 construct: effects of the compounds of the present disclosure on the expression of target proteins in cells; endogenous in cells; host or cells: human PBMCs (Milecell Biotechnologies)

[7] = molecular target: T6, WEE1 (Homo sapiens, UniProt P30291+Q96SW2); assay: as above; assay type: cell-based; conditions: Western blot, 24 hours of compound treatment, compounds tested at 50 nM and 500 nM (concentration for the table not stated)
T6 construct: effects of the compounds of the present disclosure on the expression of target proteins in cells; endogenous in cells; host or cells: human PBMCs (Milecell Biotechnologies)

[8] = test system: Human myeloid monocytic leukemia cell (MV-4-11); assay: Tumor cell proliferation inhibition (CellTiter-Meiluncell luminescent cell viability assay); conditions: MV4-11, 96 h; for inhibition at 0.01 µM: read-out: Inhibition Rate at 10 nM (%); for inhibition at 0.5 µM: read-out: Inhibition Rate at 500 nM (%)
[9] = test system: GSPT1; assay: Western blot, degradation of substrate protein in hPBMCs; assay type: cell-based, Human; conditions: Western blot, 24 hours of compound treatment, compounds tested at 50 nM and 500 nM (concentration for the table not stated)
[10] = test system: Human acute T lymphocytic leukemia cell (Molt4); assay: Tumor cell proliferation inhibition (CellTiter-Meiluncell luminescent cell viability assay); conditions: MOLT-4, 96 h

T5 sequence (P48729 whole entry): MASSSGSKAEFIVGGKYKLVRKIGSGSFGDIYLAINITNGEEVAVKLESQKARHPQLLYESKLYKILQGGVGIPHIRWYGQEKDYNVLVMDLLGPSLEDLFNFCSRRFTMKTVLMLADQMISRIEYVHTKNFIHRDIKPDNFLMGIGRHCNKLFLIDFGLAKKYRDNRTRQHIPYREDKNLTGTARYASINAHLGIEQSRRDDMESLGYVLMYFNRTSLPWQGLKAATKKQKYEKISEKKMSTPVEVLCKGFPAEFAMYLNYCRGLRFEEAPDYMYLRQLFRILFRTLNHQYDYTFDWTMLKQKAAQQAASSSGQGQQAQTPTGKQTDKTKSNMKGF
T5 sequence (Q96SW2 whole entry): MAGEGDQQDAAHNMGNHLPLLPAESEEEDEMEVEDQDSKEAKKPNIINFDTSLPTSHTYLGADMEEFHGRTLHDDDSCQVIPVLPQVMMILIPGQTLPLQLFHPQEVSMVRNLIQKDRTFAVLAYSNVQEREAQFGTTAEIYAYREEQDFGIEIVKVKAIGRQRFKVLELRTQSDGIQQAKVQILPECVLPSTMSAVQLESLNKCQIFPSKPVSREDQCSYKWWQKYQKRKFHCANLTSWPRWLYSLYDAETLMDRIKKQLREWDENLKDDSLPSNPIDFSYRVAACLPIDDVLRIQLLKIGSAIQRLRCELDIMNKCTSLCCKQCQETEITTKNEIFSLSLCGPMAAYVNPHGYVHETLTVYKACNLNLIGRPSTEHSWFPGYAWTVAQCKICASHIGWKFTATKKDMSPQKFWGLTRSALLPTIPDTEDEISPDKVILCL
T5 sequence (Q16531 whole entry partner): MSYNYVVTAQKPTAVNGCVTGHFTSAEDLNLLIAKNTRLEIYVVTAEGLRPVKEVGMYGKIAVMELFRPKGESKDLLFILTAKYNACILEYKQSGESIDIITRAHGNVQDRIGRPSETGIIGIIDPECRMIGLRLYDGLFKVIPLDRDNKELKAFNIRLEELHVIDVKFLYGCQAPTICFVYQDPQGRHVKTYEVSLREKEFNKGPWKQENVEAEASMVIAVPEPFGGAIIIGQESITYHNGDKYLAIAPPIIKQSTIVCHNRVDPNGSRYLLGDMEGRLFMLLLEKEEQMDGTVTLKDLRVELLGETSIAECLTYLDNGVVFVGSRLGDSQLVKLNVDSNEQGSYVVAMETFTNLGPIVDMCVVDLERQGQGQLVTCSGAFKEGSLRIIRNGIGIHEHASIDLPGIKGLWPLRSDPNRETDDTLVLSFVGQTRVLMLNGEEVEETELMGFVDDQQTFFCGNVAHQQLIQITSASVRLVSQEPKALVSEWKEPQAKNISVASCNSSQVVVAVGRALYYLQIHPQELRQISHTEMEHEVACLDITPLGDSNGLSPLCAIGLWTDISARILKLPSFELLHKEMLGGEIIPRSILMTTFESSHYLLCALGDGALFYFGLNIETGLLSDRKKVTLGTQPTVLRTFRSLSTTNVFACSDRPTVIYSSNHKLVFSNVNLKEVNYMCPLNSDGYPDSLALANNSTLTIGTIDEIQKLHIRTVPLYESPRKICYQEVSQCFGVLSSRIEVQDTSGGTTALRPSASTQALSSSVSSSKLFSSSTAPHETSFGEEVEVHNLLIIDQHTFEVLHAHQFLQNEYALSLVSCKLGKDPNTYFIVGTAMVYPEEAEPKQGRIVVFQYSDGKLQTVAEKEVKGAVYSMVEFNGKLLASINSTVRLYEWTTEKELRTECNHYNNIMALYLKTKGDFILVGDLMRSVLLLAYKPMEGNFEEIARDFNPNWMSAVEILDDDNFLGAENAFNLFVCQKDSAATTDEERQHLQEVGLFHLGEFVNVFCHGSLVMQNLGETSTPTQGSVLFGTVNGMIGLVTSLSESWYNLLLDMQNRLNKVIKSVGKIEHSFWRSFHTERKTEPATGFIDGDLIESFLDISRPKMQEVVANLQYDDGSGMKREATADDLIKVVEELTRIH
T3 sequence (Q9UKT9 whole entry): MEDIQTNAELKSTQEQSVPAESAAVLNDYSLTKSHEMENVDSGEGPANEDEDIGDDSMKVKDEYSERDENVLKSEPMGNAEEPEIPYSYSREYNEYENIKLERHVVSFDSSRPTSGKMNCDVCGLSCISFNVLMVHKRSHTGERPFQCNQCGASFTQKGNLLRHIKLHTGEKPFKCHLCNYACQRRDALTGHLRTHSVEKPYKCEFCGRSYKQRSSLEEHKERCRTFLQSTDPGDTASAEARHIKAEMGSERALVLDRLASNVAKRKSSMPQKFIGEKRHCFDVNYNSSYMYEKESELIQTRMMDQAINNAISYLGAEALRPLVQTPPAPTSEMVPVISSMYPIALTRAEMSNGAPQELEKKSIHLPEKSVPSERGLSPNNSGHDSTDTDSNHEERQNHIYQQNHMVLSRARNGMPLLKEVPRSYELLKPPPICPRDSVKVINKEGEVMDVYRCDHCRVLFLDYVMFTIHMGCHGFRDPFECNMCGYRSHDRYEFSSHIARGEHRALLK
T3 sequence (Q96SW2 whole entry): as the sequence (Q96SW2 whole entry) above
T3 sequence (Q16531 whole entry partner): as the sequence (Q16531 whole entry partner) above
T6 sequence (P30291 whole entry): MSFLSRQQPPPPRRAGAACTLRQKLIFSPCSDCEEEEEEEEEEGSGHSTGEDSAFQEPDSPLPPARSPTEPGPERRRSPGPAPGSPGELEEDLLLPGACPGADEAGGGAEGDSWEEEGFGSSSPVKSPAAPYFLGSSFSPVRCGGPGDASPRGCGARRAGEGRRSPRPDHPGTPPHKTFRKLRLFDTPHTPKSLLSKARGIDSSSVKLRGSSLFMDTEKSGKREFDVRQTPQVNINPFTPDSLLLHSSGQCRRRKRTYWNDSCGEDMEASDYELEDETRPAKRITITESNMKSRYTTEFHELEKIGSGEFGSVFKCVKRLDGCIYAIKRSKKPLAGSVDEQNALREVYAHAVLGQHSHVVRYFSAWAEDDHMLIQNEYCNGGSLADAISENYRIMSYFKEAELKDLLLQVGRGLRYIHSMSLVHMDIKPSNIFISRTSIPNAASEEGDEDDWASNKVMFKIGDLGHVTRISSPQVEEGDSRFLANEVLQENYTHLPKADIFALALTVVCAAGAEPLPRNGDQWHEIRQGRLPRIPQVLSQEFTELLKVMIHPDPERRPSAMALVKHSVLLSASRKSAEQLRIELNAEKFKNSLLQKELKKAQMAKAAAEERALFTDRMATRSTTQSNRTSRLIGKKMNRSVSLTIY
T6 sequence (Q96SW2 whole entry): as the sequence (Q96SW2 whole entry) above
T6 sequence (Q16531 whole entry partner): as the sequence (Q16531 whole entry partner) above
T1 sequence (Q96SW2 whole entry): as the sequence (Q96SW2 whole entry) above
T2 sequence (Q9UKS7 whole entry): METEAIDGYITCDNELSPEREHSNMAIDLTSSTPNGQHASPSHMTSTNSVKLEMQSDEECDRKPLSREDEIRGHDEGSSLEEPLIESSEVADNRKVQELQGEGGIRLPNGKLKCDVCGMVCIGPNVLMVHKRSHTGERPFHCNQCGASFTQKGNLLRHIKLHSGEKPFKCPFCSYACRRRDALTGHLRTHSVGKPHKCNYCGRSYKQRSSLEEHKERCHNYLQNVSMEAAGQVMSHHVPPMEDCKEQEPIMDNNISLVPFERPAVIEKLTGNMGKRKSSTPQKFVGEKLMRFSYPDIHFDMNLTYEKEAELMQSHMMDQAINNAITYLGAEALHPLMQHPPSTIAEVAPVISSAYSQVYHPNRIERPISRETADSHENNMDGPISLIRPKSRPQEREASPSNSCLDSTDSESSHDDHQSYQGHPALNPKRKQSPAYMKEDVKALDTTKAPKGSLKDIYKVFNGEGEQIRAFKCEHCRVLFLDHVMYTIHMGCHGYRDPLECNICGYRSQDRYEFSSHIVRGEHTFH
T2 sequence (Q96SW2 whole entry): as the sequence (Q96SW2 whole entry) above
T2 sequence (Q16531 whole entry partner): as the sequence (Q16531 whole entry partner) above
T4 sequence (Q13422 whole entry): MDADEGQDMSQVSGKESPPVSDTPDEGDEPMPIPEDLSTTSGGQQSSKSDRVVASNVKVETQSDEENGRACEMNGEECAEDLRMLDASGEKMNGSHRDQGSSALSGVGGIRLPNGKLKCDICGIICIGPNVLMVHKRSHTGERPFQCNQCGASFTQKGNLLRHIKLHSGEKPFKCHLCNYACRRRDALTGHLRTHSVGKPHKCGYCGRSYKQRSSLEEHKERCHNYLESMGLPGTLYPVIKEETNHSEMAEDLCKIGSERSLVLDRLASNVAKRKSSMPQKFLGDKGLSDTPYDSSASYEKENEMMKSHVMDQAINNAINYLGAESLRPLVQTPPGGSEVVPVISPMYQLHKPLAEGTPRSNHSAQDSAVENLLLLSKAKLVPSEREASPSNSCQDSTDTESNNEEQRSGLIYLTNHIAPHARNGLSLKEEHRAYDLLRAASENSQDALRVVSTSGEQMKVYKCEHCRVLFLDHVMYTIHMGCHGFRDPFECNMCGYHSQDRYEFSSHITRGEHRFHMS
T4 sequence (Q96SW2 whole entry): as the sequence (Q96SW2 whole entry) above
T4 sequence (Q16531 whole entry partner): as the sequence (Q16531 whole entry partner) above

Row | inhibition at 0.5 µM [2] [%] | inhibition at 2 µM [2] [%] | SMILES | inhibition at 0.01 µM [1] [%] | inhibition at 0.5 µM [1] [%] | IKZF2 substrate protein remaining % [3] | IKZF3 substrate protein remaining % [4] | IKZF 1 substrate protein remaining % [5] | CK1α substrate protein remaining % [6] | Wee1 substrate protein remaining % [7] | inhibition at 0.01 µM [8] [%] | inhibition at 0.5 µM [8] [%] | GSPT1 substrate protein remaining % [9] | inhibition at 0.01 µM ([10]; read-out: Inhibition Rate at 10 nM (%)) [%] | inhibition at 0.5 µM ([10]; read-out: Inhibition Rate at 500 nM (%)) [%]
1 | 60 to 80 | 80 to 100 | O=C1CCC(N2Cc3cc(CN4CCN(c5ccc(Cl)cn5)CC4)ccc3C2=S)C(=O)N1 (stereo not drawn) [GT-09217, 3-(5-((4-(5-chloropyridin-2-yl)piperazin-1-yl)methyl)-1-thioxoisoindolin-2-yl)piperidine-2,6-dione] | 30 to 40 | 60 to 70 | B (80%< substrate protein remaining %≤ 100%) | B (80%< substrate protein remaining %≤ 100%) | B (80%< substrate protein remaining %≤ 100%) | B (80%< substrate protein remaining %≤ 100%) | B (80%< substrate protein remaining %≤ 100%) | 40 to 60 | 80 to 100 | A (0% ≤ substrate protein remaining % ≤ 80%) | – | –
2 | 53 to 60 | 80 to 100 | O=C1CCC(N2Cc3cc(CN4CCC(c5ccccc5F)CC4)ccc3C2=S)C(=O)N1 (stereo not drawn) [GT-08620, 3-(5-((4-(2-fluorophenyl)piperidin-1-yl)methyl)-1-thioxoisoindolin-2-yl)piperidine-2,6-dione] | 40 to 50 | 70 to 80 | A (0% ≤ substrate protein remaining % ≤ 80%) | B (80%< substrate protein remaining %≤ 100%) | B (80%< substrate protein remaining %≤ 100%) | B (80%< substrate protein remaining %≤ 100%) | B (80%< substrate protein remaining %≤ 100%) | 30 to 40 | 60 to 80 | A (0% ≤ substrate protein remaining % ≤ 80%) | – | –

Continued, molecule first:

Row | SMILES | inhibition at 0.5 µM [2] [%] | inhibition at 2 µM [2] [%] | inhibition at 0.01 µM [1] [%] | inhibition at 0.5 µM [1] [%] | IKZF2 substrate protein remaining % [3] | IKZF3 substrate protein remaining % [4] | IKZF 1 substrate protein remaining % [5] | CK1α substrate protein remaining % [6] | Wee1 substrate protein remaining % [7] | inhibition at 0.01 µM [8] [%] | inhibition at 0.5 µM [8] [%] | GSPT1 substrate protein remaining % [9] | inhibition at 0.01 µM ([10]; read-out: Inhibition Rate at 10 nM (%)) [%] | inhibition at 0.5 µM ([10]; read-out: Inhibition Rate at 500 nM (%)) [%]
3 | O=C1CCC(N2Cc3cc(CN4CCN(c5ccc(Br)cc5)CC4)ccc3C2=S)C(=O)N1 (stereo not drawn) [GT-08600, 3-(5-((4-(4-bromophenyl)piperazin-1-yl)methyl)-1-thioxoisoindolin-2-yl)piperidine-2,6-dione] | 53 to 60 | 80 to 100 | 30 to 40 | 60 to 70 | B (80%< substrate protein remaining %≤ 100%) | B (80%< substrate protein remaining %≤ 100%) | B (80%< substrate protein remaining %≤ 100%) | B (80%< substrate protein remaining %≤ 100%) | B (80%< substrate protein remaining %≤ 100%) | 40 to 60 | 80 to 100 | A (0% ≤ substrate protein remaining % ≤ 80%) | – | –
4 | O=C1CCC(N2Cc3cc(CN4CCCN(c5cccc(Cl)c5Cl)CC4)ccc3C2=S)C(=O)N1 (stereo not drawn) [GT-08481, 3-(5-((4-(2,3-dichlorophenyl)-1,4-diazepan-1-yl)methyl)-1-thioxoisoindolin-2-yl)piperidine-2,6-dione] | 60 to 80 | 80 to 100 | 30 to 40 | 70 to 80 | B (80%< substrate protein remaining %≤ 100%) | B (80%< substrate protein remaining %≤ 100%) | B (80%< substrate protein remaining %≤ 100%) | B (80%< substrate protein remaining %≤ 100%) | B (80%< substrate protein remaining %≤ 100%) | 18 to 25 | 60 to 80 | A (0% ≤ substrate protein remaining % ≤ 80%) | – | –
5 | Cc1ccc(Cl)cc1N1CCN(Cc2ccc3c(c2)CN(C2CCC(=O)NC2=O)C3=S)CC1 (stereo not drawn) [GT-08615, 3-(5-((4-(5-chloro-2-methylphenyl)piperazin-1-yl)methyl)-1-thioxoisoindolin-2-yl)piperidine-2,6-dione] | 30 to 40 | 60 to 80 | 10 to 20 | 40 to 50 | B (80%< substrate protein remaining %≤ 100%) | B (80%< substrate protein remaining %≤ 100%) | B (80%< substrate protein remaining %≤ 100%) | B (80%< substrate protein remaining %≤ 100%) | B (80%< substrate protein remaining %≤ 100%) | – | – | A (0% ≤ substrate protein remaining % ≤ 80%) | 5 to 10 | 50 to 60
